# Experimental data reported in patent US20070111251A1, “Chemical address tags” (priority 2003, published 2007).
# Assays:
# [1] = Additive decomposition of peak excitation and emission wavelengths (model coefficients of A and B groups); conditions: for βj^em: influence of B group on peak emission wavelength; for βj^em / βj^ex: B group 1 as baseline; for βj^ex: influence of B group on peak excitation wavelength
# Method in brief: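 Peak excitation and emission wavelengths of styryl compounds showing a single localized peak were fit by least squares to the additive model λij=αi+βj+εij. This gave separate A- and B-group coefficient sets for excitation and emission, with the first A and B group set as zero baseline. Prediction was checked by leave-one-out cross-validation using Pearson correlation.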
# [2] = tested on: mitochondria; test: QSLR factorial logistic regression of mitochondrial localization (affinity coefficients, cross-validated prediction); parameters: species or system human; conditions: for βj^mito: influence of B group on mitochondrial localization; for estimated B group affinity coefficient bj: mitochondrial affinity
# Description: The first column and first row contain the A group and B group labels. The second column and second row contain the estimated A group and B group affinity coefficients (ai and bj respectively). The interior of the table contains the value sij=ai+bj for each compound (where positive values of sij indicate predicted localization to mitochondria, and negative values of sij indicate predicted localization to a non-mitochondrial compartment). The subscript m indicates experimentally determined mitochondrial localization. The subscript o indicates experimentally determined non-mitochondrial localization. The darkened boxes indicate correctly predicted mitochondrial localizations under cross-validation.
# Based on this matrix, factorial logistic regression (See, A. Agresti, Categorical Data Analysis, Wiley [2002]) was used to calculate mitochondrial affinity coefficients (ai and bj) for each A and B moiety. (Table 1). Since it is not necessary to observe all possible pairings between A and B building blocks to estimate the affinity coefficients, the QSLR approach can predict localization of unmeasured styryl molecules based on a minimal set of experimentally-determined localizations (see Methods). The methods of the present invention allow assessment of predictivity using the cross-validation technique by holding out one compound and fitting the affinity coefficients using the remaining compounds, predictivity can be assessed by comparing the actual localization of the held-out compound to its predicted localization. Repeating this for every measured compound in the library yields an error rate for the procedure.
# Briefly, this technique assigns quantitative scores to each A group (αi^mito) and to each B group (βj^mito), in such a way that αi^mito+βj^mito is positive for compounds with mitochondrial localization, and is negative for compounds lacking mitochondrial localization. […] In additional embodiments, same analysis can be applied to organelles other than mitochondria, provided there are a sufficient number of localizations to specific non-mitochondrial organelles in the combinatorial library of interest for reliable statistical calculations.
# In certain embodiments, the predictive performance of the above method was assessed using a cross-validation approach by calculating the proportion of all compounds that are correctly predicted. For cross-validation, each styryl product was set aside in sequence, and the factorial logistic model was fit to the remaining data. Then the resulting A and B scores for the held-out compound were summed. If the sum was positive, the held-out compound was predicted to be mitochondrial, while if the sum was negative, the held-out compound was predicted to be non-mitochondrial. […] The baseline performance of the method scored 104 correct out of 145, or 72%. This number is highly statistically significant compared to random guessing (p-value ˜10^−7). Thus, across the entire library, A and B moieties appear to contribute to localization in an independent, additive fashion.
# In some embodiments, subcellular localization data were converted to binary (0/1) values by assigning a value Gij=1 if compound i,j localized to mitochondria (even if it localized to other […] as well), and assigning Gij=0 if compound i,j localized exclusively to any non-mitochondrial cellular structure. Compounds with no localization were omitted from this part of the analysis. The αi and βj coefficients for A or B groups that are always observed to localize to mitochondria, or that never localize to mitochondria, were set to +/−5, respectively. The binary localization data were analyzed using factorial logistic regression. […]
# [3] = tested on: live UACC-62 human melanoma cells; test: Organelle-binding test: subcellular localization of styryl library compounds by fluorescence microscopy; assay type: cell-based; parameters: key to experimentally determined localization (subscript): The subscript m indicates experimentally determined mitochondrial localization; The subscript o indicates experimentally determined non-mitochondrial localization; conditions: for representative localization: FIG. 5, live UACC-62 cells; for experimentally determined localization (subscript): mitochondrial vs non-mitochondrial, live UACC-62 cells
# Description: The synthesis was designed so that the reaction mixture can be used directly in biological screening; toxic catalysts (e.g., such as strong acids, bases, and metals) were avoided, and most of the low-boiling point solvents and catalysts (e.g., pyrrolidine) were removed during the microwave reaction, leaving only DMSO, a common solvent for biological sample preparation. In some embodiments, without further purification, the library compounds were incubated with live UACC-62 human melanoma cells growing on glass bottom 96-well plates, and the localizations of the different compounds in the cells were determined using an Axiovert (Carl Zeiss, Inc., Thornwood, N.Y.) microscope (λex=405, 490, and 570 nm; λem>510 nm) with a 100× Zeiss oil immersion objective. […] The images in FIG. 5 show cells stained with selected fluorescent compounds.
# Unless otherwise noted in this example, the materials and solvents were obtained from commercial suppliers and were used without further purification. The plate reader used in this example was a Spectra Max Gemini XSF (Molecular Devices, Corp., Sunnyvale, Calif.). In preferred embodiments, for organelle-binding tests, UACC-62 melanoma cells were selected amongst a panel of 60 human cancer cell lines, because their well-spread morphology on glass made them ideally suited for imaging purposes as well as their relevance to biomedical research. (See e.g., R. H. Shoemaker et al., Development of human tumor cell line panels for use in disease oriented drug screening. In: Hall, T. ed., Prediction of Response to Anti-cancer Chemotherapy, New York N.Y.: Alan Liss, 265-286 [1988]).
# In some of these embodiments, UACC-62 cells (obtained from the Developmental Therapeutics Program at the National Cancer Institute) were grown in RPMI medium supplemented with 10% fetal calf serum. For microscopy, cells were plated on 96 well tissue-culture plates (Falcon) overnight, in RPMI plus 10% fetal calf serum, at 37° C. in 5% CO2/95% air. Cells were incubated with compounds at an approximate concentration of 50 μM for 1 hour.
# A Zeiss Axiovert 135M (Carl Zeiss, Inc., Thornwood, N.Y.) inverted fluorescence microscope outfitted with a FITC/TRITC multipass filter cube (Chroma Technology, Corp., Rockingham, Vt.) was used for screening and routine cell biological fluorescence imaging applications. In some embodiments, epifluorescence microscopy was performed using a Zeiss Axiovert epifluorescence microscope equipped with a 20× objective.
# The library compounds, without further purification, were incubated with live UACC-62 human melanoma cells growing on glass bottom 96-well plates (Sigma-Aldrich Corp., St. Louis, Mo.), and the localizations of the different compounds in the cells were determined by an inverted fluorescence microscope (λex=405, 490, and 570 nm; λem>510 nm) at 1000× magnification. Based on their morphology and subcellular distribution, the localizations were ascribed to mitochondria, ER (endoplasmic reticulum), nucleoli, nuclear, and cytoplasmic staining patterns such as diffuse (based on the homogenous staining appearance and exclusion from the nucleus), granular (punctate staining pattern, generally associated with the cell margins) or vesicular (heterogeneous staining pattern, generally associated with the nuclear periphery). Localization studies were performed without a priori information of the compounds' molecular structures. It was possible to ascribe the localization of the compounds to nucleus or cytoplasm, as these organelles are clearly discernible with phase contrast optics. Similarly, it was possible to ascribe localization to nucleoli, as these structures appeared as the most prominent, phase-dense structures within the nucleus. Localization to mitochondria was based on the elongated, characteristic shape of these organelles, which stain positive with established mitochondrial-specific fluorescent probes, like […] or JC-1. (L. B. Chen, Methods Cell Bio., 29:103-123 [1989]). […]
smiles,measurement,setting,value
COc1ccc2c(ccc(C)[n+]2C)c1.[I-] [B group 9],influence of group on peak wavelength,[1],strongly contribute towards the red end of the spectrum
same,βj^em,[1],35.0 nm
same,βj^ex,[1],−0.1 nm
same,βj^mito,[2],−2.0
same,estimated B group affinity coefficient bj,[2],−2.0
Cc1ccnc(-c2cc(C)cc[n+]2C)c1.[I-] [B group 10],βj^em,[1],19.8 nm
same,βj^ex,[1],1.6 nm
same,βj^mito,[2],0.8
same,estimated B group affinity coefficient bj,[2],0.8
Cc1cc[n+](C)c(C)c1.[I-] [B group 11],βj^em,[1],−4.1 nm
same,βj^ex,[1],−4.2 nm
same,βj^mito,[2],2.1
same,estimated B group affinity coefficient bj,[2],2.1
Cc1cccc(C)[n+]1C.[I-] [B group 12],βj^em,[1],−1.7 nm
same,βj^ex,[1],−10.2 nm
same,βj^mito,[2],2.7
same,estimated B group affinity coefficient bj,[2],2.7
Cc1cc(C)[n+](C)c(C)c1.[I-] [B group 13],βj^em,[1],−1.8 nm
same,βj^ex,[1],−1.1 nm
same,βj^mito,[2],2.5
same,estimated B group affinity coefficient bj,[2],2.5
Cc1cnc2c(ccc3c(C)c(C)c[n+](C)c32)c1C.[I-] [B group 14],influence of group on peak wavelength,[1],strongly contribute towards the red end of the spectrum
same,βj^em,[1],57.9 nm
same,βj^ex,[1],100.6 nm
same,βj^mito,[2],0.0
same,estimated B group affinity coefficient bj,[2],0.1
COc1ccc2c(ccc(/C=C/c3ccc(N(C)C)cc3)[n+]2C)c1.[I-] [Compound 119],representative localization,[3],nucleolar
COc1ccc2c(ccc(C=CC=Cc3ccc(N(C)C)cc3)[n+]2C)c1.[I-] [Compound 137],representative localization,[3],cytosolic
C[n+]1ccc(C=CCc2ccccc2)cc1.[I-] [Compound A1-B1],experimentally determined localization (subscript),[3],o
C(=Cc1cc[n+](C23CC4CC(CC(C4)C2)C3)cc1)Cc1ccccc1.[Br-] [Compound A1-B2],experimentally determined localization (subscript),[3],o
C[n+]1c(C=CCc2ccccc2)ccc2ccccc21.[I-] [Compound A1-B8],experimentally determined localization (subscript),[3],m
COc1ccc2c(ccc(C=CCc3ccccc3)[n+]2C)c1.[I-] [Compound A1-B9],experimentally determined localization (subscript),[3],m
Cc1ccnc(-c2cc(C=CCc3ccccc3)cc[n+]2C)c1.[I-] [Compound A1-B10],experimentally determined localization (subscript),[3],m
COc1ccc(C=Cc2ccc3cc(OC)ccc3[n+]2C)cc1.[I-] [Compound A10-B9],experimentally determined localization (subscript),[3],o
C[n+]1ccc(C=Cc2ccc(OCc3ccccc3)c(OCc3ccccc3)c2)cc1.[I-] [Compound A12-B1],representative localization,[3],mitochondria
same,experimentally determined localization (subscript),[3],m
C[n+]1ccccc1C=Cc1ccc(OCc2ccccc2)c(OCc2ccccc2)c1.[I-] [Compound A12-B3],experimentally determined localization (subscript),[3],m
CCc1ccc(C=Cc2ccc(OCc3ccccc3)c(OCc3ccccc3)c2)[n+](C)c1.[I-] [Compound A12-B5],experimentally determined localization (subscript),[3],o
C[n+]1ccc(C=Cc2ccc(OCc3ccccc3)c(OCc3ccccc3)c2)c2ccccc21.[I-] [Compound A12-B7],experimentally determined localization (subscript),[3],m
Cc1cccc(C=Cc2ccc(OCc3ccccc3)c(OCc3ccccc3)c2)[n+]1C.[I-] [Compound A12-B12],experimentally determined localization (subscript),[3],o
Cc1cc(C)[n+](C)c(C=Cc2ccc(OCc3ccccc3)c(OCc3ccccc3)c2)c1.[I-] [Compound A12-B13],experimentally determined localization (subscript),[3],o
COc1ccc(C=Cc2cc[n+](C34CC5CC(CC(C5)C3)C4)cc2)c2ccccc12.[Br-] [Compound A14-B2],experimentally determined localization (subscript),[3],o
COc1ccc(C=Cc2ccc3ccccc3[n+]2C)cc1O.[I-] [Compound A15-B8],experimentally determined localization (subscript),[3],m
Oc1ccc(C=Cc2cc[n+](C34CC5CC(CC(C5)C3)C4)cc2)cc1.[Br-] [Compound A16-B2],experimentally determined localization (subscript),[3],m
CC(=O)Nc1ccc(C=Cc2ccc3ccccc3[n+]2C)cc1.[I-] [Compound A18-B8],experimentally determined localization (subscript),[3],m
COc1ccc2c(ccc(C=Cc3ccc(NC(C)=O)cc3)[n+]2C)c1.[I-] [Compound A18-B9],experimentally determined localization (subscript),[3],o
CN(C)c1ccc(C=Cc2ccc3ccccc3[n+]2C)cc1.[I-] [Compound A19-B8],experimentally determined localization (subscript),[3],o
C[n+]1ccc(C=Cc2ccccc2[N+](=O)[O-])c2ccccc21.[I-] [Compound A20-B7],experimentally determined localization (subscript),[3],m
C[n+]1c(C=Cc2cccc([N+](=O)[O-])c2)ccc2ccccc21.[I-] [Compound A21-B8],experimentally determined localization (subscript),[3],m
